Measured values published in ChEMBL document CHEMBL1177715, “Design and synthesis of androgen receptor full antagonists bearing a p-carborane cage: promising ligands for anti-androgen withdrawal syndrome” (J Med Chem, 2010).
Activity calls are given as the source filed them. No cut-off for these calls is given here.

Legend:
[1] = system: SC-3; assay: Growth inhibition of mouse SC3 cells after 3 days by WST-8 assay; assay type: functional, cell-based; conditions: SC-3, 72 h
[2] = system: LNCaP; assay: Growth stimulatory activity of human LNCAP cells; assay type: functional, cell-based

Structure (SMILES)	IC50 [1]	Activity [2]
C[C@](O)(CS(=O)(=O)c1ccc(F)cc1)C(=O)Nc1ccc(C#N)c(C(F)(F)F)c1 [(R)-BICALUTAMIDE]	140 nM	–
CC(C)C(=O)Nc1ccc([N+](=O)[O-])c(C(F)(F)F)c1 [FLUTAMIDE]	720 nM	Active
CC(C)(O)C(=O)Nc1ccc([N+](=O)[O-])c(C(F)(F)F)c1 [HYDROXYFLUTAMIDE]	240 nM	Active
